# Measurements as given in patent US20150178471A1, “IMPROVED CLINICAL EFFECT OF PHARMACEUTICAL PRODUCTS USING COMMUNICATION TOOL AND LIFE-STYLE FACTORS” (SCIENTIFICMED SWEDEN AB, priority 2012, published 2015).
# Settings: no combination product
# From the text: Development and test of a combination product based on the pharmaceutical Zoloft and a specifically adapted QFM, including life-style improving factors, with a dependent software application • a. Test objectives; improve cardiovascular and diabetes symptoms • b. Main intervention factors; • i. an improved level of physical activity • ii. increased awareness of food intake • iii. an increased well-being based on improved administration of Zoloft • c. Follow-up variables: Weight and HbA1c • d. Period of Time Using the Combination Product: Five Months. • e. Period of time using only the pharmaceutical, i.e. no combination product, prior to the period of using the combination product: Two months • f. Period of time using only the software application, i.e. no combination product, after the period of using the combination product: Two weeks
# The used set of questions for the specific QFM, including life-style improving factors, in the combination product based on Zoloft was the following: • Adherence to Zoloft: • The patient was asked to answer a question whether or not he/she had been adherent to Zoloft, and which dose the patient had taken; “I have taken my Zoloft today with the dose 25 mg/50 mg/100 mg/150 mg or 200 mg”. • Physical activity: • The patient was asked initially to set up an individual goal with the purpose of achieving an increased effect. […]
smiles,measurement,setting,value
"CN[C@H]1CC[C@@H](c2ccc(Cl)c(Cl)c2)c2ccccc21 [Zoloft, Sertralin]",HbA1c,test period when the patient only was taking Zoloft (two months),remained stable or slightly increased
same,Weight gained,test period when the patient only was taking Zoloft,1-2%
